Data set [1] concerns the target T1, Fatty acid amid hydrolase (FAAH) (Rattus norvegicus, UniProt P97612).
T1 construct: source is rat brain; tissue MDS Pharma Services; host or cells: rat brain
T1 sequence (P97612 1-579): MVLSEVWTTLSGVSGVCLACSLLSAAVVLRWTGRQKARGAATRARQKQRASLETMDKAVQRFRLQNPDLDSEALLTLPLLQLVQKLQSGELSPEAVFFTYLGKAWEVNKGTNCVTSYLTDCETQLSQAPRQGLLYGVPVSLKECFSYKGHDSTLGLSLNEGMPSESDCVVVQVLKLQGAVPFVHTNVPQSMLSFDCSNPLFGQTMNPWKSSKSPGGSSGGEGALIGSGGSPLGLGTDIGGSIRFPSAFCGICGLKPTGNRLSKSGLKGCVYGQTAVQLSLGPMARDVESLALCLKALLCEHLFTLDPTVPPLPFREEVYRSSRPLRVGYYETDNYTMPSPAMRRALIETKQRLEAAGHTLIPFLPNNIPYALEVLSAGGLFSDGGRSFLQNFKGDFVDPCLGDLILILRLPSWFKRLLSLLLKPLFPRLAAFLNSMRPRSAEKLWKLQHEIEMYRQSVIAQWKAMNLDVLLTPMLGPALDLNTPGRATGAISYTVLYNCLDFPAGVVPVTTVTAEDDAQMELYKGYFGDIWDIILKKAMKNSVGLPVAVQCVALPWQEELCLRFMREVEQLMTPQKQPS
Nature of the data set: FAAH in vitro enzyme assay (MDS Pharma Services). It is filed as biochemical. Conditions: rat brain source; substrate Anandamide+[3H]Anandamide. The protocol: The assay is conducted using the following test conditions; source is rat brain, substrate is Anandamide+[3H]Anandamide, the reation is[3H]Anandamide→[3H]Ethanolamine+Arachidonic acid and the quantitation is performed on [3H]Ethanolamine using a test concentration usually of about 10 μM.

Data set [2] has as its system IL-1β release in LPS-activated human peripheral blood mononuclear cells (PBMC). Nature of the data set: LPS-induced IL-1β release from human PBMC. It counts as cell-based. Also on record: IL-1β: unit not given here. As to conditions: for IL-1β: LPS-stimulated PBMC. An excerpt: (§1) The ability of GMCY to inhibit release of pro-inflammatory cytokines (TNF-α and IL-1) in LPS-activated human peripheral blood mononuclear cells (PBMC) has been investigated.

In data set [3] the target is T2, Protein tyrosine kinase enzyme Syk (Homo sapiens, UniProt P43405).
T2 construct: MDS Pharma assay no 174200
Nature of the data set: Protein tyrosine kinase Syk inhibition (MDS Pharma, assay no 174200). It is filed as biochemical.

Data set [4] relates to TNF-α release in LPS-activated human peripheral blood mononuclear cells (PBMC). Nature of the data set: LPS-induced TNF-α release from human PBMC. It is filed as cell-based. Conditions: for TNF-α: LPS-stimulated PBMC.
Text: as §1

The next data set has as its target T3, human PPARα (Homo sapiens, UniProt Q07869).
T3 construct: host or cells: HEK 293-T
T3 sequence (Q07869 239-466 limits assumed): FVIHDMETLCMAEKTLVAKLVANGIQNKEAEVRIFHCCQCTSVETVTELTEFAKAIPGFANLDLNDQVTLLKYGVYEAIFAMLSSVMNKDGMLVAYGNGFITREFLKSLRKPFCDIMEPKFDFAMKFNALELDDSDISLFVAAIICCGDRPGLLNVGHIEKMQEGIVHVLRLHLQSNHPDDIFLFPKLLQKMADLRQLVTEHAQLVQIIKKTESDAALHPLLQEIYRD
Nature of the data set: PPARα agonism, Gal4-luciferase transactivation assay in HEK 293-T. It counts as cell-based. The protocol:
Effect of GMCY and glyceryl fatty acid esters of higher acid chain length on PPARα agonism.
Agonism of PPARα can be tested by commercially available assays such as by Indigo Biosciences). The test substance is dissolved in DMSO and serial dilutions in DMSO were prepared. A plasmid was formed by fusing a ligand-binding domain of human PPARα, to a DAN-binding domain of the yest transcription factor Gal4 under the control of the SV40 promoter. This plasmid also encoded the UAS-firefly luciferase reporter under the control of the Gal4 DNA response element. Cell-cultures and transactivation assays were HEK 293-T fibroblast (ATCC Manassas, Va.) which were cultured in high-glucose Dulbecco's Minimal Essential Medium (DMEM) supplemented with 10% fetal bovine serum (FBS, Sigma), 0.2 mg/ml streptomycin and 200 U/ml penicillin (Gibco Grand Island, N.Y.). Cells were transfected with plasmid DNA using Lipofectamine reagent (In Vitrogen, Carlsbad, Calif.) using the manufacturers recommended procedures. Sixteen hours after treatment, the cells were lysed with passive lysis buffer (Promega, Madison, Wis.) and a Tecan GeniousPro (Research Triangle Park, N.C.). The fold induction of normalised luciferase activity was calculated relative to DMSO, DMSO-treated cells.

The next data set addresses T4, vanilloid receptors (Rattus norvegicus, UniProt O35433).
T4 construct: The tissue used in this assay was rat vas deferens, field stimulated; tissue MDS Pharma Services; host or cells: rat vas deferens
Nature of the data set: In vitro radioligand binding assay for vanilloid receptors (MDS Pharma Services). Conditions: rat vas deferens, field stimulated. An excerpt:
Literature reference to this assay is Wardle, K A et al. J PharmPharmacol. 48:285, 1996.

The subject of the next data set is acute inflammation. As to conditions: Example 111 of WO 2004/000333; cited from earlier work.
The test system of data set [5] is capsaicin-induced neurogenic inflammation (ear oedema). Nature of the data set: Capsaicin-induced ear oedema (neurogenic inflammation) model in mice. It counts as in vivo, NMRI mice. Conditions: for % relative ear oedema (2. app): co-administered with capsaicin 250 μg/ear, 15 min after second capsaicin application; for % inhibition of ear oedema: after second capsaicin application, vs vehicle. An excerpt: Effect on capsaicin-induced neurogenic inflammation in mice and binding to the TRP vanillioid receptor.
The mechanism of cutaneous neurogenic inflammation is connected with the release of neuropeptides from sensory nerve endings. The neuropeptide substance P is believed to play a major role in inducing an inflammatory response by affecting different inflammatory cells.

Data set [6] relates to IL-6 release in LPS-activated human peripheral blood mononuclear cells (PBMC). Nature of the data set: LPS-induced IL-6 release from human PBMC. As to conditions: physiologically relevant concentrations. It counts as cell-based.
A further data set concerns skin. Put plainly: Skin tolerability of dermatological compositions. As to conditions: higher doses. An excerpt:
Therefore, in current interesting embodiments of the invention, the dermatological composition comprises for reasons of safety and convenience a maximal dose of GMCY or an analogue thereof in an amount of 5% of GMCY or an analogue thereof by weight of the dermatological composition, such as in a maximum doses of 4.5%, 4%, 3.5%, 3%, 2.5%, 2%, 1.5%, 1.25 1%, 0.8, 0.6 and 0.5% of GMCY or an analogue thereof by weight of the dermatological composition.

Data set [7] addresses T1, Fatty acid amid hydrolase (FAAH). As to conditions: reference compound of the assay; cited from earlier work.
[8] abbreviates: physiologically relevant concentrations.

Read-outs that look alike come from different tables or passages of the source.

T4 sequence (O35433 whole entry): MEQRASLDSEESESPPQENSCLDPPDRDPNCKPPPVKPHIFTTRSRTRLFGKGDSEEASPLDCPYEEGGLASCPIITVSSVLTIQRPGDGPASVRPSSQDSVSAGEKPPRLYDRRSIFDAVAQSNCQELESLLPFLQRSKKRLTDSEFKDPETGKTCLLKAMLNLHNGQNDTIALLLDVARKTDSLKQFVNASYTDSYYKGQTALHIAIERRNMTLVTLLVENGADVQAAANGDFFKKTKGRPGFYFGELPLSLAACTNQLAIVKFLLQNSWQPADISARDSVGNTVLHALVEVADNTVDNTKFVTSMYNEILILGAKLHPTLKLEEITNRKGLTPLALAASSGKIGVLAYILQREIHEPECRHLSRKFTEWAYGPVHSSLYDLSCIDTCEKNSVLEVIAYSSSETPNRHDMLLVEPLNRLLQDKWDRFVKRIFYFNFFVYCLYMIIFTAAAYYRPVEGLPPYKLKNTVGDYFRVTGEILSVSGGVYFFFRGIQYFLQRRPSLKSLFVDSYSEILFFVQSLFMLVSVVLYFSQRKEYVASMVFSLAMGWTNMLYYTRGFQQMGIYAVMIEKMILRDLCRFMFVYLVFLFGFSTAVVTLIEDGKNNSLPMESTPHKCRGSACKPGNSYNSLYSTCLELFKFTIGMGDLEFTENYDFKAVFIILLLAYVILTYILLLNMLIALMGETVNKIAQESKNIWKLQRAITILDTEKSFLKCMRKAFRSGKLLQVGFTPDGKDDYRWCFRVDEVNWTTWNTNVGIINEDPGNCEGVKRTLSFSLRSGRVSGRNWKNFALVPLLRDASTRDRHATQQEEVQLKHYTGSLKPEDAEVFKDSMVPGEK

On to `CCCCCCCC(=O)OCC(O)CO` (racemic) [GMCY, 1-glyceryl monocaprylate], for which the IC50 in [1] came to 53 µM; in [3] it was 61 µM. The IL-1β is listed as 459.2 in [2] (1 μM); 320.9 in [2] (10 μM); 238.6 in data set [2] (100 μM); 124.5 in data set [2] (1000 μM); 8.2 in [2] (10000 μM). The “inhibition of LPS induced release of IL-1β” value in data set [2] (setting [8]) is reported as “dose dependently inhibit”. The TNF-α in data set [4] (1 μM) stood at 230.2; in data set [4] (10 μM) it was 105; in [4] (100 μM), 73.7; in [4] (1000 μM), 38.5; in [4], 6.9. Further, in data set [4] (setting [8]), the “inhibition of LPS induced release of TNF-α” value is “dose dependently inhibit”. Moreover, the PPARα agonism result on human PPARα was “did not act as an agonist”. In addition, the “binding to the vanilloid receptors” value on vanilloid receptors is “does not bind”. Moreover, the “effect on acute inflammation” value in the data set with acute inflammation is listed as “any effect could not be proven statistically”. In addition, the “% relative ear oedema (2. app)” value came to 15.8% in data set [5] (100 μg/ear topical), 15.3% in data set [5] (450 μg/ear topical) and 15.0% in data set [5] (2000 μg/ear topical). The “% inhibition of ear oedema” value in data set [5] (100 μg/ear) is on record as 32.6%; in [5] (450 μg/ear), 34.4%; in data set [5] (2000 μg/ear), 36.0%. Further, the “reduction of inflammation in comparison to the vehicle control” value in data set [5] (after repeated application of capsaicin, treated groups overall) was “about 35%”. Also, in [6], the “inhibition of LPS induced release of IL-6” value is given as “dose dependently inhibit”. The “skin burning / irritation” value in the data set on skin is “causes burning or weak irritation in higher doses”.

`CCCCCCCCCC(=O)OCC(O)CO` (centres unmarked) [1-glyceryl monocaprate, reference compound]: the “inhibitory effect on neurogenic inflammation (ear oedema vs vehicle control)” value in [5] (all treated groups (2000, 450, 100 μg/ear)) is “no inhibitory effect”.

`C[C@@H]1C[C@H]2[C@@H]3CCC4=CC(=O)C=C[C@]4(C)[C@@]3(F)[C@@H](O)C[C@]2(C)[C@@]1(O)C(=O)CO` [Dexamethasone, reference compound]: the TNF-α in [4] (Dexamethasone control, concentration not given) amounted to 87.

In the case of `CCCCCCCC/C=C\CCCCCCCC(=O)C(F)(F)F` [Oleyl Trifluromethyl Ketone], in data set [7], the IC50 is 0.029 µM.

In general, IC50 refers to the concentration needed to halve the response being measured.

(Values after patent US20080167375A1, “TREATMENT OF CUTANEOUS NEUROGENIC INFLAMMATION” (Astion Pharma A/S, priority 2006, published 2008).)
